{"source": "patent US20260115250A1", "about": "“METHODS OF TREATING AGE-RELATED MACULAR DEGENERATION” (Character Biosciences, Inc., priority 2022, published 2026)", "key": {"[1]": {"test_system": "ARPE-19 cells", "assay": "ARPE-19 cholesterol import (BODIPY-Cholesterol)", "format": "cell-based, human", "conditions": "ARPE-19, 0.37-30 μM peptide, FIG. 15", "method": "FIG. 12 and FIGS. 14A-14B illustrate the results of ARPE-19 cholesterol import testing. ARPE-19 cells were seeded on 96-well plates at 25,000 cells per well and grown to confluence. A 2× solution of 500 μM DMPC and 50 μM BODIPY-Cholesterol were prepared in serum free DMEM: F12. Peptides were diluted to 20 μM in serum free DMEM: F12 (a 2× solution). Peptides were added to lipid solution in equal parts (60 μL each) and were incubated for 1 hour at 37° C. ARPE-19 cells were serum starved in serum free DMEM: F12 for 1 hour at 37° C. Peptide: Lipid complexes (100 μL total volume per well) were transferred to ARPE-19 cells for 2 hours at 37° C. Cells were washed, fixed, and intracellular fluorescence was read on Promega GloMax at 475 nm excitation, 500-550 emission. Fluorescence values were background corrected from no treatment conditions. Data are presented as mean+SD for two runs.\nFIG. 15 illustrates ARPE-19 cholesterol import titration curves for a subset of the peptides. ARPE-19 cells were seeded on 96-well plates at 25,000 cells per well and grown to confluence. A 2× solution of 500 μM DMPC and 50 μM BODIPY-Cholesterol was prepared in serum free DMEM: F12. Peptides were diluted to 0.74-60 μM in serum free DMEM: F12 (2× solutions). Peptides were added to lipid solution in equal parts (60 μL each) to create final peptide concentrations of 0.37-30 µM and incubated for 1 hour at 37° C. ARPE-19 cells were serum starved in serum free DMEM: F12 for 1 hour at 37° C. Peptide: Lipid complexes (100 μL total volume per well) were transferred to ARPE-19 cells for 2 hours at 37° C. Cells were washed, fixed, and intracellular fluorescence was read on Promega GloMax at 475 nm excitation, 500-550 emission. Fluorescence values were background corrected from no treatment conditions. […]\nARPE-19 cells were seeded on 96-well plates at 25,000 cells per well and grown to confluence. […] Cells were washed, fixed, and intracellular fluorescence was read on Promega GloMax at 475 nm excitation, 500-550 emission. Fluorescence values were background corrected from no treatment conditions. […]"}, "[2]": {"assay": "peptide binding to non-oxidized and oxidized lipids (SPR)", "conditions": "immobilized peptide; RU normalized to DMPC", "method": "FIGS. 25A-25O show peptide binding activity to non-oxidized and oxidized lipids via SPR for indicated peptides. Peptides were reconstituted to 50 μg/mL in 10 mM acetate buffer, pH 4.5 and immobilized to ˜200 RU on a CM5 chip via amine coupling. Non-oxidized lipids (DMPC & POPC) and oxidized lipids (POVPC & KOdiA-PC) were diluted to 100 µM in HBS-EP running buffer and exposed to the chip for binding (n=3) at a flow rate of […] for 120 seconds. The surface was regenerated with 20% EtOH. T-001 served as a positive control and T-031 served as a negative control on each chip. For each peptide, the RU response for all lipids was normalized to the DMPC RU values."}, "[3]": {"test_system": "HepG2 cells", "assay": "HepG2 GAG dependent cholesterol import (with or without heparin)", "format": "cell-based", "conditions": "HepG2, 10 μM peptide, with or without 100 μg/mL heparin", "method": "HepG2 cells were seeded on 96-well plates at 10,000 cells per well and grown to confluence. A 2× solution of 500 μM DMPC and 50 μM BODIPY-Cholesterol with or without 100 μg/mL heparin was prepared in serum free EMEM. Peptides were diluted to 20 μM in serum-free EMEM (a 2× solution). Peptides were added to lipid solution in equal parts (60 μL each) and incubated for 1 hour at 37° C. HepG2 cells were serum starved in serum-free EMEM for 1 hour at 37° C. Peptide: Lipid complexes (100 μL total volume per well) were transferred to HepG2 cells for 2 hours at 37° C. Cells were washed, fixed, and intracellular fluorescence was read on Promega GloMax at 475 nm excitation, 500-550 emission. Fluorescence values were background corrected from no treatment conditions. Data are presented ±SD for 2 runs."}}, "note": "Peptide text beside a SMILES is read from it."}
{"smiles": "CC[C@H](C)[C@H](NC(=O)CNC(=O)[C@H](CO)NC(=O)[C@@H](NC(=O)[C@H](Cc1c[nH]c2ccccc12)NC(=O)[C@H](Cc1c[nH]cn1)NC(=O)[C@H](CCC(=O)O)NC(=O)[C@H](Cc1ccccc1)NC(=O)[C@H](CCCNC(=N)N)NC(=O)[C@H](CC(C)C)NC(=O)[C@H](CC(C)C)NC(=O)[C@H](CCCNC(=N)N)NC(=O)[C@H](CCCCN)NC(=O)[C@H](CCCNC(=N)N)NC(=O)[C@H](CC(C)C)NC(=O)[C@H](CCCCN)NC(=O)[C@H](CCCNC(=N)N)NC(=O)[C@H](CC(C)C)NC(=O)[C@@H](N)Cc1c[nH]cn1)[C@@H](C)CC)C(=O)N[C@@H](Cc1ccc(O)cc1)C(=O)N[C@@H](CO)C(=O)N[C@@H](CCC(=O)O)C(=O)N[C@@H](CS)C(=O)N[C@@H](CCCCN)C(=O)N[C@@H](Cc1c[nH]cn1)C(=O)N[C@@H](CC(C)C)C(=O)N[C@H](C(=O)N[C@@H](CCC(N)=O)C(=O)N[C@@H](CCC(=O)O)C(=O)O)[C@@H](C)CC", "note": "[T-025] (H-HLRKLRKRLLRFEHWISGIYSECKHLIQE-OH; N-terminus and C-terminus assumed)", "values": [{"measurement": "cholesterol import titration", "setting": "[1]", "value": "concentration-dependent increase in cholesterol import"}, {"measurement": "binding to oxidized lipids relative to DMPC", "setting": "[2]", "value": "binding to at least one oxidized lipid that was equivalent or improved to binding against DMPC"}, {"measurement": "GAG dependence of cholesterol import", "setting": "[3]", "value": "rely on GAG binding for cholesterol import activity"}]}
